ChEMBL document CHEMBL5625187, “A facile and selective derivatization approach on kynurenine-NH2 in daptomycin, leading to the discovery of hexakynomycin to combat multidrug-resistant Gram-positive pathogens especially daptomycin-resistant bacteria” (Eur J Med Chem, 2023)
Converted amounts (≈) assume the structure as drawn. The source made the active and inactive calls. No cut-off for these calls is given here.

Assays:
Staphylococcus aureus [1] = test: Antibacterial activity against methicillin-resistant Staphylococcus aureus clinical isolate 20-3 infected in iv dosed Kunming mouse model assessed as increase in survival measured after 14 days; assay type: functional; conditions: Clinical isolate 20-3, 336 h, time 14 day
Erythrocyte = test: Hemolytic activity in rat RBC at 400 ug/ml incubated for 1 hr; assay type: toxicity, cell-based; conditions: dose 400 µg/ml
Staphylococcus aureus [2] = test: Antibacterial activity against methicillin-susceptible Staphylococcus aureus Newman ATCC 25904 assessed as reduction in microbial growth incubated for 24 hrs by broth microdilution method; assay type: functional
Staphylococcus aureus [3] = test: Antibacterial activity against methicillin-resistant Staphylococcus aureus USA300 assessed as reduction in microbial growth incubated for 24 hrs by broth microdilution method; assay type: functional
Staphylococcus aureus [4] = test: Antibacterial activity against vancomycin-intermediate resistant Staphylococcus aureus Mu 50 assessed as reduction in microbial growth incubated for 24 hrs by broth microdilution method; assay type: functional
Enterococcus faecium [5] = test: Antibacterial activity against glycopeptide-resistant Enterococcus faecium Efm-HS-0649 assessed as reduction in microbial growth incubated for 24 hrs by broth microdilution method; assay type: functional
Staphylococcus aureus [6] = test: Antibacterial activity against methicillin-resistant Staphylococcus aureus clinical isolate 20-1 assessed as reduction in microbial growth incubated for 24 hrs by broth microdilution method; assay type: functional
Staphylococcus aureus [7] = test: Antibacterial activity against methicillin-resistant Staphylococcus aureus clinical isolate 20-2 assessed as reduction in microbial growth incubated for 24 hrs by broth microdilution method; assay type: functional
Staphylococcus aureus [8] = test: Antibacterial activity against methicillin-resistant Staphylococcus aureus clinical isolate 20-3 assessed as reduction in microbial growth incubated for 24 hrs by broth microdilution method; assay type: functional
Staphylococcus aureus [9] = test: Antibacterial activity against methicillin-susceptible Staphylococcus aureus clinical isolate 20-1 assessed as reduction in microbial growth incubated for 24 hrs by broth microdilution method; assay type: functional
Staphylococcus aureus [10] = test: Antibacterial activity against methicillin-susceptible Staphylococcus aureus ATCC 29213 assessed as reduction in microbial growth incubated for 24 hrs by broth microdilution method; assay type: functional
Enterococcus faecalis [11] = test: Antibacterial activity against Enterococcus faecalis EFA 20-1 assessed as reduction in microbial growth incubated for 24 hrs by broth microdilution method; assay type: functional
Enterococcus faecium [12] = test: Antibacterial activity against Enterococcus faecium EFM 20-1 assessed as reduction in microbial growth incubated for 24 hrs by broth microdilution method; assay type: functional
Enterococcus faecalis [13] = test: Antibacterial activity against Enterococcus faecalis ATCC 29212 assessed as reduction in microbial growth incubated for 24 hrs by broth microdilution method; assay type: functional
Staphylococcus aureus [14] = test: Antibacterial activity against vancomycin-intermediate resistant Staphylococcus aureus ATCC 700699 assessed as reduction in microbial growth incubated for 24 hrs by broth microdilution method; assay type: functional
Enterococcus faecalis [15] = test: Antibacterial activity against vancomycin-resistant Enterococcus faecalis VREfa 20-1 assessed as reduction in microbial growth incubated for 24 hrs by broth microdilution method; assay type: functional
Staphylococcus aureus [16] = test: Potency index, ratio of daptomycin MIC to test compound MIC for antibacterial activity against methicillin-susceptible Staphylococcus aureus Newman ATCC 25904; assay type: functional
Enterococcus faecium [17] = test: Potency index, ratio of daptomycin MIC to test compound MIC for antibacterial activity against glycopeptide-resistant Enterococcus faecium Efm-HS-0649; assay type: functional
Staphylococcus aureus [18] = test: Potency index, ratio of daptomycin MIC to test compound MIC for antibacterial activity against methicillin-susceptible Staphylococcus aureus clinical isolate 20-1; assay type: functional
Staphylococcus aureus [19] = test: Potency index, ratio of daptomycin MIC to test compound MIC for antibacterial activity against methicillin-susceptible Staphylococcus aureus ATCC 29213; assay type: functional
Enterococcus faecalis [20] = test: Potency index, ratio of daptomycin MIC to test compound MIC for antibacterial activity against Enterococcus faecalis EFA 20-1; assay type: functional
Enterococcus faecium [21] = test: Potency index, ratio of daptomycin MIC to test compound MIC for antibacterial activity against Enterococcus faecium EFM 20-1; assay type: functional
Enterococcus faecalis [22] = test: Potency index, ratio of daptomycin MIC to test compound MIC for antibacterial activity against Enterococcus faecalis ATCC 29212; assay type: functional
HEK293 = test: Cytotoxicity against HEK293 cells assessed as reduction in cell viability at 80 ug/ml after 72 hrs by CCK-8 assay relative to control; assay type: toxicity, cell-based; conditions: human, hek293, 72 h, at 80 µg/mL
Staphylococcus aureus [23] = test: Antibacterial activity against Staphylococcus aureus infected in zebra fish model assessed as survival rate at 10 mg/kg, ip after 8 hrs by relative to control; assay type: functional
Staphylococcus aureus [24] = test: Antibacterial activity against Staphylococcus aureus infected in zebra fish model assessed as survival rate at 10 mg/kg, ip after 24 hrs by relative to control; assay type: functional
[25] = Observed volume of distribution at steady state in CD-1 mouse at 1 mg/kg, iv measured up to 24 hrs by UPLC-MS analysis; assay type: ADME, organism-based; conditions: in vivo, read-out: Vdss
Staphylococcus aureus [26] = test: Antimicrobial activity in Staphylococcus aureus Newman ATCC 25904 infected in ICR mouse excisional wound model assessed as decrease in bacterial growth at 20 mg/kg administered topically and measured after 24 hrs relative to control; assay type: functional; set-up: scale not given: the % may be the effect or the level left; conditions: route top
[27] = Toxicity in ICR mouse excisional wound model infected with Staphylococcus aureus Newman ATCC 25904 assessed as survival at 20 mg/kg administered topically for 7 days; assay type: organism-based; conditions: in vivo, topical_or_ocular, 168 h, route top, time 7 day
[28] = Toxicity in ICR mouse excisional wound model infected with Staphylococcus aureus Newman ATCC 25904 assessed as change in weight at 20 mg/kg administered topically for 7 days; assay type: organism-based; conditions: in vivo, topical_or_ocular, 168 h, route top, time 7 day
[29] = Solubility of compound in deionized water at >10 mg/ml at room temperature; assay type: physicochemical; conditions: buffer
[30] = Solubility of compound in saline at >10 mg/ml at room temperature; assay type: physicochemical; conditions: buffer
[31] = Half life in PBS at pH 7.2 to 7.4 at 37 degC for 24 hrs; assay type: ADME
Staphylococcus aureus [32] = test: Induction of drug resistance against Staphylococcus aureus Newman ATCC 25904 assessed as fold increase in MIC after 15 days by broth microdilution method; assay type: functional; conditions: time 15.0 day
Staphylococcus aureus [33] = test: Induction of membrane disruption in Staphylococcus aureus at 4 to 16 ug/ml incubated for 4 hrs by propidium iodide staining based flow cytometric analysis; assay type: functional, organism-based; conditions: dose 4-16 µg/ml
Staphylococcus aureus [34] = test: Antibacterial activity against Staphylococcus aureus assessed as reduction in bacterial growth incubated for 16 to 24 hrs by serial dilution method; assay type: functional; conditions: time 16-24 hrs
Staphylococcus aureus [35] = test: Antibacterial activity against Staphylococcus aureus assessed as reduction in bacterial growth incubated for 16 to 24 hrs in presence of PG by serial dilution method; assay type: functional; conditions: time 16-24 hrs
Staphylococcus aureus [36] = test: Ratio of MIC for antibacterial activity against Staphylococcus aureus in presence of PG to MIC for antibacterial activity against Staphylococcus aureus; assay type: functional
Staphylococcus aureus [37] = test: Antibacterial activity against Staphylococcus aureus assessed as reduction in bacterial growth incubated for 16 to 24 hrs in presence of CAMHB medium by serial dilution method; assay type: functional; conditions: time 16-24 hrs
Staphylococcus aureus [38] = test: Antibacterial activity against Staphylococcus aureus assessed as reduction in bacterial growth incubated for 16 to 24 hrs in presence of MHB medium by serial dilution method; assay type: functional; conditions: time 16-24 hrs
Staphylococcus aureus [39] = test: Ratio of MIC for antibacterial activity against Staphylococcus aureus in presence of MHB medium to MIC for antibacterial activity against Staphylococcus aureus CAMHB medium; assay type: functional

In the case of `CCCCCCCCCC(=O)N[C@@H](Cc1c[nH]c2ccccc12)C(=O)N[C@H](CC(N)=O)C(=O)N[C@@H](CC(=O)O)C(=O)N[C@@H]1C(=O)NCC(=O)N[C@@H](CCCN)C(=O)N[C@@H](CC(=O)O)C(=O)N[C@H](C)C(=O)N[C@@H](CC(=O)O)C(=O)NCC(=O)N[C@H](CO)C(=O)N[C@@H]([C@H](C)CC(=O)O)C(=O)N[C@@H](CC(=O)c2ccccc2NCCCCCC)C(=O)O[C@@H]1C`, the ED50 (Staphylococcus aureus [1]) is reported as 0.29 mg/kg, the Activity (Erythrocyte) is reported as “Non-Toxic” and the MIC (Staphylococcus aureus [2]) is reported as 0.5 µg/mL. The MIC (Staphylococcus aureus [3]) was 0.125 µg/mL, the MIC (Staphylococcus aureus [4]) was 2 µg/mL and the MIC (Enterococcus faecium [5]) was 0.25 µg/mL. The MIC (Staphylococcus aureus [6]) was ≤ 0.008 µg/mL, the MIC (Staphylococcus aureus [7]) was 0.03 µg/mL and the MIC (Staphylococcus aureus [8]) was ≤ 0.008 µg/mL. For the same compound, the MIC (Staphylococcus aureus [9]) was 0.015 µg/mL, the MIC (Staphylococcus aureus [10]) was ≤ 0.008 µg/mL and the MIC (Enterococcus faecalis [11]) was 0.5 µg/mL. For the same compound, the MIC (Enterococcus faecium [12]) was 1 µg/mL, the MIC (Enterococcus faecalis [13]) was 0.5 µg/mL and the MIC (Staphylococcus aureus [14]) was 2 µg/mL. For the same compound, the MIC (Enterococcus faecalis [15]) was 0.5 µg/mL, the Ratio (Staphylococcus aureus [16]) was 4 and the Ratio (Enterococcus faecium [17]) was 4. The Ratio (Staphylococcus aureus [18]) was “>=4”, the Ratio (Staphylococcus aureus [19]) was “>=4” and the Ratio (Enterococcus faecalis [20]) was “>=4”. For the same compound, the Ratio (Enterococcus faecium [21]) was “>=4”, the Ratio (Enterococcus faecalis [22]) was “>=4” and the Activity (HEK293) was ~ 100%. For the same compound, the survival at 10 mg/kg (Staphylococcus aureus [23]) was 37.5%, the survival at 10 mg/kg (Staphylococcus aureus [24]) was 25% and the Vd [25] was 0.2 L/kg. For the same compound, the Activity (Staphylococcus aureus [26]) was 100%, the Activity [27] was “Non-Toxic” and the Activity [28] was “Non-Toxic”. For the same compound, the solubility [29] was “Soluble”, the solubility [30] was “Soluble” and the half-life [31] was 19 days. For the same compound, the fold change (FC) (Staphylococcus aureus [32]) was 4, the Activity (Staphylococcus aureus [33]) was “Active” and the MIC (Staphylococcus aureus [34]) was 0.5 µg/mL (≈ 0.293 µM). The MIC (Staphylococcus aureus [35]) was 256 µg/mL, the Ratio (Staphylococcus aureus [36]) was 512 and the MIC (Staphylococcus aureus [37]) was 0.5 µg/mL. It also gave an MIC (Staphylococcus aureus [38]) of 4 µg/mL and a Ratio (Staphylococcus aureus [39]) of 8.
